Key:
Norovirus = experiment: Suspension testing: Norovirus-positive stool in suspension, test agent, PBST neutralization, IMS bead capture, qRT-PCR; set-up: species or system human; conditions: for antiviral activity against Norovirus (in words): nanosilver at any concentration tested, alcohol up to 70%; for Log Reduction: Suspension
Human Norovirus = experiment: Hard surface testing: Norovirus-positive stool dried on surface, test agent, PBST neutralization, IMS bead capture, qRT-PCR
Protocol: For this method, a Norovirus-positive human stool sample was allowed to dry on the surface of a material. A sterilized surface material (e.g., stainless steel, ceramic, porcelain, or fabric, etc.), in this case a round stainless steel plate, was placed into the center of a sterile deep Petri dish. 20 μl of Norovirus-positive human stool sample was added to the center of the stainless steel plate. The stool sample was dried onto the surface of the material for 30 minutes at room temperature.
100 μl of a test agent (e.g., a chemical disinfectant) was added on top of the dried stool sample. 100 μl of a neutral buffer, phosphate buffered saline-TWEEN® 20 (polysorbate) (PBST), was used as a negative control (in place of the test agent). 100 μl of 20% household bleach, (10500 ppm sodium hypochlorite, prepared fresh) was used as a positive control (in place of the test agent). The sample and the test agent, neutral buffer, and either 20% household bleach or 10500 ppm sodium hypochlorite were incubated at room temperature for as short as one minute to as long as 60 minutes.
40 ml of PBST was added over the surface to fully submerge the surface material and to dislodge the entire dried stool sample. 40 ml PBST acts as a neutralizer for the test compound by dilution. If necessary, the dried stool sample was scraped with the end of a sterile pipette tip. The mixture was shaken for 15 minutes (at ˜150 rpm) in an orbital shaker at room temperature.
The supernatant is transferred to a 50 ml screw cap centrifuge tube (or similar container). 10-100 μl of Norovirus specific antibody conjugated IMS beads were added, and the resulting mixture was incubated for 1-2 hours with end over rotation (5-10 RPM). The Norovirus specific antibody was monoclonal antibody P2B2 (Kim Laboratories, Inc., Rantoul, Ill.). A tube was placed in a magnetic stand for 15 minutes to capture the IMS beads. The supernatant was removed, with care being taken not to dislodge the IMS beads. […]

O=C(O)CC(O)(CC(=O)O)C(=O)O [Citric Acid Solution, Citric Acid]
antiviral activity against Norovirus (in words) (Norovirus; Suspension testing): ineffective | Log Reduction (Norovirus; 0.6%): 1.26 log

CCO [Ethanol solution, Ethanol]
Log Reduction (Norovirus; 70%): 1.3 log

OCl [Sodium Hypochlorite]
Log Reduction (Human Norovirus; Hard surface (porcelain tile), 20% of household bleach by Clorox brand): >5 log | Norovirus disinfection (in words) (Human Norovirus; Hard surface testing, bleach dilution more than 2-3 weeks old): not effective | antiviral activity against Human Norovirus (in words) (Human Norovirus; Hard surface testing, nanosilver at any concentration tested): showed antiviral activity | Norovirus disinfection (in words) (Norovirus; Suspension testing, bleach dilution more than 2-3 weeks old, data not shown): not effective | antiviral activity against Norovirus (in words) (Norovirus; Suspension testing): showed antiviral activity | Log Reduction (Norovirus; 20% of household bleach by Clorox brand): >5 log

CCO [alcohol]
antiviral activity against Norovirus (in words) (Norovirus; Suspension testing): ineffective

OO [hydrogen peroxide]
antiviral activity against Norovirus (in words) (Norovirus; Suspension testing): ineffective

CC(O)C(=O)O (centres unmarked) [lactic acid]
antiviral activity against Norovirus (in words) (Norovirus; Suspension testing): ineffective

O=S(=O)([O-])O[O-].[K+].[K+] [potassium peroxymonosulfate]
antiviral activity against Norovirus (in words) (Norovirus; Suspension testing): ineffective

Povidone Iodine
Log Reduction (Norovirus; 5%): 1.1 log

— patent US20110104300A1, “Methods for Screening Chemical, Biological, and Physical Agents for Disinfecting Infectious Norovirus” (KIM LABORATORIES, INC., priority 2009, published 2011)
